In ChEMBL document CHEMBL1201862, “PubChem BioAssay data set” (2004):
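Assay format: 96-well plates, 48-hour exposure. The concentration for 50% growth inhibition is given as GI50.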 The source made the active and inactive calls. Cut-off read from the data, not from the text of the source: active = GI50 up to about 1.1 µM and inactive = higher.

What was measured:
Experiment in all cases: growth of human tumour cells (NCI), 48 h
Hs-578T = tested on: Hs-578T
SNB-19 = tested on: SNB-19
NCI-H522 = tested on: NCI-H522
M14 = tested on: M14
SNB-75 = tested on: SNB-75
TK-10 = tested on: TK-10
SK-MEL-5 = tested on: SK-MEL-5
A549 = tested on: A549
RXF 393 = tested on: RXF 393
T47D = tested on: T47D
UACC-257 = tested on: UACC-257
UO-31 = tested on: UO-31
SR = tested on: SR
MCF7 = tested on: MCF7
RPMI-8226 = tested on: RPMI-8226
SK-OV-3 = tested on: SK-OV-3
NCI-H23 = tested on: NCI-H23
IGROV-1 = tested on: IGROV-1
OVCAR-3 = tested on: OVCAR-3
EKVX = tested on: EKVX
A498 = tested on: A498
DU-145 = tested on: DU-145
CAKI-1 = tested on: CAKI-1
SN12C = tested on: SN12C
MDA-MB-231 = tested on: MDA-MB-231
SF-539 = tested on: SF-539
U-251 = tested on: U-251
SK-MEL-2 = tested on: SK-MEL-2
SK-MEL-28 = tested on: SK-MEL-28
Malme-3M = tested on: Malme-3M
COLO 205 = tested on: COLO 205
HCT-116 = tested on: HCT-116
UACC-62 = tested on: UACC-62
NCI-H226 = tested on: NCI-H226
786-0 = tested on: 786-0
MDA-MB-435 = tested on: MDA-MB-435
NCI/ADR-RES = tested on: NCI/ADR-RES
OVCAR-4 = tested on: OVCAR-4
K562 = tested on: K562
SF-295 = tested on: SF-295
BT-549 = tested on: BT-549
NCI-H460 = tested on: NCI-H460
HCT-15 = tested on: HCT-15
HT-29 = tested on: HT-29
OVCAR-5 = tested on: OVCAR-5
MOLT-4 = tested on: MOLT-4
PC-3 = tested on: PC-3
HOP-62 = tested on: HOP-62
LOX IMVI = tested on: LOX IMVI
MDA-N = tested on: MDA-N
SW-620 = tested on: SW-620
OVCAR-8 = tested on: OVCAR-8
HCC 2998 = tested on: HCC 2998
ACHN = tested on: ACHN
HOP-92 = tested on: HOP-92
SF-268 = tested on: SF-268
KM12 = tested on: KM12
HL-60 = tested on: HL-60
CCRF-CEM = tested on: CCRF-CEM

For `C[C@H]1CC[C@@H]2[C@@H](C)[C@H]3[C@H](C[C@H]4[C@@H]5CC=C6C[C@@H](O)CC[C@]6(C)[C@H]5C[C@H](O)[C@]34C)N2C1`, the GI50 (Hs-578T) was > 100 µM (inactive), the GI50 (SNB-19) was > 100 µM (inactive) and the GI50 (NCI-H522) was > 100 µM (inactive). For the same compound, the GI50 (M14) was > 100 µM (inactive), the GI50 (SNB-75) was > 100 µM (inactive) and the GI50 (TK-10) was > 100 µM (inactive). The GI50 (SK-MEL-5) was > 100 µM (inactive), the GI50 (A549) was > 100 µM (inactive) and the GI50 (RXF 393) was > 100 µM (inactive). For the same compound, the GI50 (T47D) was > 100 µM (inactive), the GI50 (UACC-257) was > 100 µM (inactive) and the GI50 (UO-31) was > 100 µM (inactive). The GI50 (SR) was > 100 µM (inactive), the GI50 (MCF7) was > 100 µM (inactive) and the GI50 (RPMI-8226) was > 100 µM (inactive). For the same compound, the GI50 (SK-OV-3) was > 100 µM (inactive), the GI50 (NCI-H23) was > 100 µM (inactive) and the GI50 (IGROV-1) was > 100 µM (inactive). For the same compound, the GI50 (OVCAR-3) was > 100 µM (inactive), the GI50 (EKVX) was > 100 µM (inactive) and the GI50 (A498) was > 100 µM (inactive). For the same compound, the GI50 (DU-145) was > 100 µM (inactive), the GI50 (CAKI-1) was > 100 µM (inactive) and the GI50 (SN12C) was > 100 µM (inactive). The GI50 (MDA-MB-231) was > 100 µM (inactive), the GI50 (SF-539) was > 100 µM (inactive) and the GI50 (U-251) was > 100 µM (inactive). The GI50 (SK-MEL-2) was > 100 µM (inactive), the GI50 (SK-MEL-28) was > 100 µM (inactive) and the GI50 (Malme-3M) was > 100 µM (inactive). For the same compound, the GI50 (COLO 205) was > 100 µM (inactive), the GI50 (HCT-116) was > 100 µM (inactive) and the GI50 (UACC-62) was > 100 µM (inactive). For the same compound, the GI50 (NCI-H226) was > 100 µM (inactive), the GI50 (786-0) was > 100 µM (inactive) and the GI50 (MDA-MB-435) was > 100 µM (inactive). For the same compound, the GI50 (NCI/ADR-RES) was > 100 µM (inactive), the GI50 (OVCAR-4) was > 100 µM (inactive) and the GI50 (K562) was > 100 µM (inactive). For the same compound, the GI50 (SF-295) was > 100 µM (inactive), the GI50 (BT-549) was > 100 µM (inactive) and the GI50 (NCI-H460) was > 100 µM (inactive). For the same compound, the GI50 (HCT-15) was > 100 µM, the GI50 (HT-29) was > 100 µM (inactive) and the GI50 (OVCAR-5) was > 100 µM (inactive). The GI50 (MOLT-4) was > 100 µM (inactive), the GI50 (PC-3) was > 100 µM (inactive) and the GI50 (HOP-62) was > 100 µM (inactive). The GI50 (LOX IMVI) was > 100 µM (inactive), the GI50 (MDA-N) was > 100 µM (inactive) and the GI50 (SW-620) was > 100 µM (inactive). The GI50 (OVCAR-8) was > 100 µM (inactive), the GI50 (HCC 2998) was > 100 µM (inactive) and the GI50 (ACHN) was > 100 µM (inactive). For the same compound, the GI50 (HOP-92) was > 100 µM (inactive), the GI50 (SF-268) was > 100 µM (inactive) and the GI50 (KM12) was > 100 µM (inactive).
In the case of `CC1=NN2C(=O)CC(=O)N=C2S1`, the GI50 (Hs-578T) was > 100 µM (inactive), the GI50 (SNB-19) was > 100 µM (inactive) and the GI50 (NCI-H522) was > 100 µM (inactive). For the same compound, the GI50 (M14) was > 100 µM (inactive), the GI50 (SNB-75) was > 100 µM (inactive) and the GI50 (TK-10) was > 100 µM (inactive). The GI50 (SK-MEL-5) was > 100 µM (inactive), the GI50 (A549) was > 100 µM (inactive) and the GI50 (RXF 393) was > 100 µM (inactive). For the same compound, the GI50 (T47D) was > 100 µM (inactive), the GI50 (UACC-257) was > 100 µM (inactive) and the GI50 (HL-60) was > 100 µM (inactive). The GI50 (SR) was > 100 µM (inactive), the GI50 (MCF7) was > 100 µM (inactive) and the GI50 (RPMI-8226) was > 100 µM (inactive). For the same compound, the GI50 (SK-OV-3) was > 100 µM (inactive), the GI50 (NCI-H23) was > 100 µM (inactive) and the GI50 (IGROV-1) was > 100 µM (inactive). For the same compound, the GI50 (OVCAR-3) was > 100 µM (inactive), the GI50 (EKVX) was > 100 µM (inactive) and the GI50 (DU-145) was > 100 µM (inactive). The GI50 (CAKI-1) was > 100 µM (inactive), the GI50 (SN12C) was > 100 µM (inactive) and the GI50 (MDA-MB-231) was > 100 µM (inactive). The GI50 (SF-539) was > 100 µM (inactive), the GI50 (U-251) was > 100 µM (inactive) and the GI50 (SK-MEL-2) was > 100 µM (inactive). For the same compound, the GI50 (SK-MEL-28) was > 100 µM (inactive), the GI50 (Malme-3M) was > 100 µM (inactive) and the GI50 (COLO 205) was > 100 µM (inactive). The GI50 (HCT-116) was > 100 µM (inactive), the GI50 (UACC-62) was > 100 µM (inactive) and the GI50 (NCI-H226) was > 100 µM (inactive). The GI50 (786-0) was > 100 µM (inactive), the GI50 (MDA-MB-435) was > 100 µM (inactive) and the GI50 (NCI/ADR-RES) was > 100 µM (inactive). The GI50 (OVCAR-4) was > 100 µM (inactive), the GI50 (CCRF-CEM) was > 100 µM (inactive) and the GI50 (K562) was > 100 µM (inactive). The GI50 (SF-295) was > 100 µM (inactive), the GI50 (BT-549) was > 100 µM (inactive) and the GI50 (NCI-H460) was > 100 µM (inactive). The GI50 (HCT-15) was > 100 µM, the GI50 (HT-29) was > 100 µM (inactive) and the GI50 (OVCAR-5) was > 100 µM (inactive). The GI50 (MOLT-4) was > 100 µM (inactive), the GI50 (PC-3) was > 100 µM (inactive) and the GI50 (HOP-62) was > 100 µM (inactive). For the same compound, the GI50 (LOX IMVI) was > 100 µM (inactive), the GI50 (MDA-N) was > 100 µM (inactive) and the GI50 (SW-620) was > 100 µM (inactive). For the same compound, the GI50 (OVCAR-8) was > 100 µM (inactive), the GI50 (ACHN) was > 100 µM (inactive) and the GI50 (HOP-92) was > 100 µM (inactive). The GI50 (SF-268) was > 100 µM (inactive) and the GI50 (KM12) was > 100 µM (inactive).
With `Oc1cc(-c2ccccc2)nc2c(S)cccc12` the GI50 (Hs-578T) was > 100 µM (inactive), the GI50 (SNB-19) was > 100 µM (inactive) and the GI50 (NCI-H522) was > 100 µM (inactive). For the same compound, the GI50 (M14) was > 100 µM (inactive), the GI50 (SNB-75) was 23.5 µM (inactive) and the GI50 (TK-10) was > 100 µM (inactive). The GI50 (SK-MEL-5) was 37.1 µM (inactive), the GI50 (A549) was > 100 µM (inactive) and the GI50 (RXF 393) was 35.9 µM (inactive). The GI50 (T47D) was 29 µM (inactive), the GI50 (UACC-257) was > 100 µM (inactive) and the GI50 (HL-60) was 97.9 µM (inactive). The GI50 (SR) was > 100 µM (inactive), the GI50 (MCF7) was > 100 µM (inactive) and the GI50 (RPMI-8226) was > 100 µM (inactive). The GI50 (SK-OV-3) was > 100 µM (inactive), the GI50 (NCI-H23) was > 100 µM (inactive) and the GI50 (IGROV-1) was > 100 µM (inactive). For the same compound, the GI50 (OVCAR-3) was > 100 µM (inactive), the GI50 (DU-145) was > 100 µM (inactive) and the GI50 (SN12C) was > 100 µM (inactive). The GI50 (MDA-MB-231) was 62.5 µM (inactive), the GI50 (SF-539) was > 100 µM (inactive) and the GI50 (U-251) was > 100 µM (inactive). The GI50 (SK-MEL-28) was > 100 µM (inactive), the GI50 (Malme-3M) was > 100 µM (inactive) and the GI50 (COLO 205) was > 100 µM (inactive). The GI50 (HCT-116) was > 100 µM (inactive), the GI50 (UACC-62) was > 100 µM (inactive) and the GI50 (NCI-H226) was 17.2 µM (inactive). For the same compound, the GI50 (786-0) was > 100 µM (inactive), the GI50 (MDA-MB-435) was > 100 µM (inactive) and the GI50 (NCI/ADR-RES) was > 100 µM (inactive). For the same compound, the GI50 (OVCAR-4) was > 100 µM (inactive), the GI50 (CCRF-CEM) was > 100 µM (inactive) and the GI50 (K562) was 81.3 µM (inactive). The GI50 (SF-295) was > 100 µM (inactive), the GI50 (BT-549) was > 100 µM (inactive) and the GI50 (NCI-H460) was > 100 µM (inactive). The GI50 (HCT-15) was > 100 µM, the GI50 (HT-29) was > 100 µM (inactive) and the GI50 (OVCAR-5) was > 100 µM (inactive). The GI50 (MOLT-4) was 47.3 µM (inactive), the GI50 (PC-3) was 47.3 µM (inactive) and the GI50 (HOP-62) was > 100 µM (inactive). For the same compound, the GI50 (MDA-N) was > 100 µM (inactive), the GI50 (SW-620) was > 100 µM (inactive) and the GI50 (OVCAR-8) was > 100 µM (inactive). The GI50 (HCC 2998) was > 100 µM (inactive), the GI50 (ACHN) was 95.3 µM (inactive) and the GI50 (HOP-92) was 63.2 µM (inactive). The GI50 (SF-268) was > 100 µM (inactive) and the GI50 (KM12) was > 100 µM (inactive).
